# Data reported in patent US20100173935A1, “Muscarinic Receptor Agonists that are Effective in the Treatment of Pain, Alzheimer's Disease and Schizophrenia” (AstraZeneca AB, priority 2006, published 2010).
# Legend:
# [1] = target: T1, hM1 (human Muscarinic receptor subtype 1) (Homo sapiens, UniProt P11229); assay: Human M1 calcium mobilization FLIPR assay; format: cell-based; conditions: CHO cells expressing hM1, Ca2+ release
# T1 construct: expressed in transfected cells; host or cells: CHO cells (ATCC)
# T1 sequence (P11229 1-460): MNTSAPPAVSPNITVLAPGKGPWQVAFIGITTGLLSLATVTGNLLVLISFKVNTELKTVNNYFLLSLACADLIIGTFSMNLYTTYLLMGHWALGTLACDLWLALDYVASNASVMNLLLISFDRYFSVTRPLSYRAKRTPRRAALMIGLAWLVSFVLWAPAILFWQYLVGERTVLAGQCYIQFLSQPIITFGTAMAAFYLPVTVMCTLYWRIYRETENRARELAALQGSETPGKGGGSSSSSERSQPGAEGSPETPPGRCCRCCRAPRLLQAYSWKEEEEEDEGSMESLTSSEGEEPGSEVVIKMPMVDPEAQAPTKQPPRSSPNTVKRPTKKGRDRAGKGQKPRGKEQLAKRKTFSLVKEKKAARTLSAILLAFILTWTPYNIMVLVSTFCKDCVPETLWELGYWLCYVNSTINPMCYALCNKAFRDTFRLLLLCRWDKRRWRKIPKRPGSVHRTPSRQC
# Method: (§1) The compound activity in the present invention (EC50 or IC50) was measured using a 384 plate-based imaging assay that monitors drug induced intracellular Ca^2+ release in whole cells. Activation of hM1 (human Muscarinic receptor subtype 1, gene bank access NM_000738), rM1 (rat Muscarinic receptor subtype 1, gene bank access NM_080773), hM3 (human Muscarinic receptor subtype 3, gene bank access NM_000740NM_000740) and hM5 (human Muscarinic receptor subtype 5, gene bank access NM_0121258), receptors expressed in CHO cells (chinese hamster ovary cells, ATCC) was quantified in a Molecular Devices FLIPR II™ instrument as an increase in fluorescent signal. Inhibition of hM3 and hM5 by compounds was determined by the decrease in fluorescent signal in response to 20 nM carbachol activation.
# (§2) CHO cells were plated in 384-black polylysine coated plate (Costar) at 8000 cells/well/50 μl for 24 hours or 4000 cells/well for 48 hours in a humidified incubator (5% CO2 and 37° C.) in DMEM/F12 medium without selection agent. Prior to the experiment the cell culture medium was removed from the plates by inversion. A loading solution of 30 μl of Hank's balanced salt solution, 10 mM Hepes and 2.5 mM Probenicid at Ph 7.4 (Cat no. 311-520-VL, Wisent) with 2 μM calcium indicator dye (FLUO-3AM, Molecular Probes F14202) was added to each well. Plates were incubated at 37° C. for 60 minutes prior to start the experiment. The incubation was terminated by washing the cells four times in assay buffer, leaving a residual 25 μl buffer per well. Cell plates were then transferred to the FLIPR, ready for compound additions.
# (§3) The day of experiment, carbachol and compounds were diluted in three-fold concentration range (10 points serial dilution) for addition by FLIPR instrument. For all calcium assays, a baseline reading was taken for 30 seconds followed by the addition of 12.5 μl (25 μl for hM1 and rM1) of compounds, resulting in a total well volume of 37.5 μl (50 μl for hM1 and rM1). Data were collected every 1.6 seconds for 300 seconds. For hM3 and hM5 an additional 12.5 μl of carbachol (20 nM final) was added at 300 seconds. After this addition of carbachol (producing a final volume of 50 μl), the FLIPR continued to collect data every 2 seconds for 240 seconds. The fluorescence emission was read using filter 1 (emission 520-545 nm) by the FLIPR on board CCD camera.
# (§4) Calcium mobilization output data were calculated as the maximal relative fluorescence unit (RFU) minus the minal value for both compound and agonist reading frame (except for hM1 and rM1 using only the maximal RFU). Data were analyzed using sigmoidal fits of a non-linear curve-fitting program (XLfit version 5.0.6 from ID Business Solutions Limited, Guildford, UK). All EC50 and IC50 values are reported as arithmetic means±standard error of mean of ‘n’ independent experiments.
# [2] = target: T2, hM5 (human Muscarinic receptor subtype 5) (Homo sapiens, UniProt P08912); assay: Human M5 calcium mobilization FLIPR assay; format: cell-based; conditions: CHO cells expressing hM5, Ca2+ release
# T2 construct: expressed in transfected cells; host or cells: CHO cells (ATCC)
# T2 sequence (P08912 1-532): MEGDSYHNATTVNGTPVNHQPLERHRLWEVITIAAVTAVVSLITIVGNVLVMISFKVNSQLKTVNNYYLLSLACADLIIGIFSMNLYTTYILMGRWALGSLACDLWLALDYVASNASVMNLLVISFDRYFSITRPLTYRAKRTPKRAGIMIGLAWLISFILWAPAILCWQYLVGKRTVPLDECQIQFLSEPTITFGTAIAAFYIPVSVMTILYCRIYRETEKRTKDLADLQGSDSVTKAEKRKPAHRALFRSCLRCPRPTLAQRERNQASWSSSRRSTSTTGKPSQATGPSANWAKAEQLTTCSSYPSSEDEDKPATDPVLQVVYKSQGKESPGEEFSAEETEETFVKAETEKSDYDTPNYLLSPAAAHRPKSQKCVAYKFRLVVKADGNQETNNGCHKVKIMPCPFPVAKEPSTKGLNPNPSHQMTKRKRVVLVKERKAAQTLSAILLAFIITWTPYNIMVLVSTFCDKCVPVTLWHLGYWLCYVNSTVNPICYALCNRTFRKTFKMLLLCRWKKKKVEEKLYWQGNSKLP
# Method: as §1, §2, §3, §4
smiles,measurement,setting,value
"CCOC(=O)N1CC[C@H](N2CCC(n3c(=O)[nH]c4ccc(F)cc43)CC2)C1 (single isomer, unassigned) [Example 35]",EC50,[1],0.0045 µM
same,EC50,[2],0.905 µM
"CCOC(=O)N1CC[C@H](N2CCC(n3c(=O)[nH]c4ccc(Cl)cc43)CC2)C1 [Example 42, Ethyl (3S)-3-[4-(6-chloro-2-oxo-2,3-dihydro-1H-benzimidazol-1-yl)piperidin-1-yl]pyrrolidine-1-carboxylate]",EC50,[1],0.003 µM
"CCOC(=O)N1CC[C@H](N2CCC(N3C(=O)Cc4ccccc43)CC2)C1 [Example 26, Ethyl (3S)-3-[4-(2-oxo-2,3-dihydro-1H-indol-1-yl)piperidin-1-yl]pyrrolidine-1-carboxylate]",EC50,[1],0.0308 µM
same,EC50,[2],0.341 µM
"CCOC(=O)N1CC[C@@H](N2CCC(n3c(=O)[nH]c4ccc(F)cc43)CC2)C1 (single isomer, unassigned) [Example 36]",EC50,[1],0.0408 µM
same,EC50,[2],> 40 µM
"Cn1c(=O)n(C2CCN([C@H]3CCN(C(=O)CCN4CCCC4=O)C3)CC2)c2ccccc21 [Example 24, 1-methyl-3-(1-{(3S)-1-[3-(2-oxopyrrolidin-1-yl)propanoyl]pyrrolidin-3-yl}piperidin-4-yl)-1,3-dihydro-2H-benzimidazol-2-one]",EC50,[1],0.203 µM
same,EC50,[2],> 40 µM
"O=C1CCCN1CCCC(=O)N1CC[C@H](N2CCC(n3c(=O)[nH]c4ccccc43)CC2)C1 [Example 22, 1-(1-{(3S)-1-[4-(2-oxopyrrolidin-1-yl)butanoyl]pyrrolidin-3-yl}piperidin-4-yl)-1,3-dihydro-2H-benzimidazol-2-one]",EC50,[1],0.0379 µM
"CCOC(=O)N1CCC(N2CCC(C3C(=O)Nc4ccccc43)CC2)C1 (centres unmarked) [Example 13, Ethyl 3-[4-(2-oxo-2,3-dihydro-1H-indol-3-yl)piperidin-1-yl]pyrrolidine-1-carboxylate]",EC50,[1],0.113 µM
same,EC50,[2],> 40 µM
"CCOC(=O)N1CC[C@@H](N2CCC(n3c(=O)[nH]c4ccccc43)CC2)C1 [Example 16, Ethyl (3R)-3-[4-(2-oxo-2,3-dihydro-1H-benzimidazol-1-yl)piperidin-1-yl]pyrrolidine-1-carboxylate]",EC50,[1],0.13 µM
same,EC50,[2],> 40 µM
"O=C1CCCN1CCC(=O)N1CC[C@H](N2CCC(N3C(=O)Cc4ccccc43)CC2)C1 [Example 29, 1-(1-{(3S)-1-[3-(2-oxopyrrolidin-1-yl)propanoyl]pyrrolidin-3-yl}piperidin-4-yl)-1,3-dihydro-2H-indol-2-one]",EC50,[1],0.0035 µM
same,EC50,[2],0.708 µM
"O=C(C1CCCC1)N1CC[C@H](N2CCC(n3c(=O)[nH]c4ccccc43)CC2)C1 [Example 19, 1-{1-[(3S)-1-(cyclopentylcarbonyl)pyrrolidin-3-yl]piperidin-4-yl}-1,3-dihydro-2H-benzimidazol-2-one]",EC50,[1],0.0096 µM
same,EC50,[2],0.833 µM
"CCOC(=O)N1CC[C@H](N2CCC(n3c(=O)[nH]c4ccc(C#N)cc43)CC2)C1 [Example 41, Ethyl (3S)-3-[4-(6-cyano-2-oxo-2,3-dihydro-1H-benzimidazol-1-yl)piperidin-1-yl]pyrrolidine-1-carboxylate]",EC50,[1],0.0034 µM
same,EC50,[2],0.534 µM
